Results on 38 compounds are retold here after ChEMBL document CHEMBL6087398, “Natural phenol carbamates: Selective BuChE/FAAH dual inhibitors show neuroprotection in an Alzheimer's disease mouse model” (Eur J Med Chem, 2025).

The term inhibition denotes the change of the read-out against control, counted positive when it falls. Usually IC50 stands for the midpoint of a concentration-inhibition curve. Broadly, the Kd is the concentration at which binding is half-saturated. The Papp is a coefficient for how fast a substance crosses the barrier.

Each structure is given as a SMILES string. Calls of active or inactive are those of the source. No cut-off for these calls is given here.

For series [1], the target named is Acetylcholinesterase (Electrophorus electricus) (UniProt O42275). Briefly: Inhibition of electric eel AChE using acetylthiocholine iodide as substrate preincubated with enzyme for 20 mins followed by substrate addition and measured after 20 mins by Ellman's method. To be noted: time 40.0 min. Also noted: concentration or dose not given beside the values. For orientation: Ellman's reagent forms a yellow product with free thiols.
Chain of Acetylcholinesterase (Electrophorus electricus) (O42275 24-633 limits assumed): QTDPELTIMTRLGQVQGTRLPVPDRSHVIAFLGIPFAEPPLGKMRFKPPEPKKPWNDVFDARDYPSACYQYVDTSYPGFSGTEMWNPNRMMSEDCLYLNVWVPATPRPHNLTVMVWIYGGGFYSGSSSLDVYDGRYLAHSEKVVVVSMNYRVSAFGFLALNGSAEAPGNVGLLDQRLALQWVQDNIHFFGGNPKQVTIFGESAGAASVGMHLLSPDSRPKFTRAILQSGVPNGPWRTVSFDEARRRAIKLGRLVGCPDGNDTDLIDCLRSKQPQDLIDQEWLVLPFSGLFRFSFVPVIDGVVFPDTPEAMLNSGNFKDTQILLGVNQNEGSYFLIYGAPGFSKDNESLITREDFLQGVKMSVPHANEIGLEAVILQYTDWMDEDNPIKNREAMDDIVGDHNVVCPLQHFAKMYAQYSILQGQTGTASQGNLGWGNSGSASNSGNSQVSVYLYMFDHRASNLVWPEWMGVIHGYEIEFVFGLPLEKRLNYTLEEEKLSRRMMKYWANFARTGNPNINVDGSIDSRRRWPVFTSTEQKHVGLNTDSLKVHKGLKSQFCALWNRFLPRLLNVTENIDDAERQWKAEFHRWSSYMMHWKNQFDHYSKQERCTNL

For series [2], the target named is Cholinesterase (Equus caballus, UniProt P81908). The series can be described thus: Inhibition of equine BuChE using butyrylthiocholine iodide as substrate preincubated with enzyme for 20 mins followed by substrate addition and measured after 20 mins by Ellman's method.
Chain of Cholinesterase (Equus caballus, UniProt P81908) (P81908 whole entry): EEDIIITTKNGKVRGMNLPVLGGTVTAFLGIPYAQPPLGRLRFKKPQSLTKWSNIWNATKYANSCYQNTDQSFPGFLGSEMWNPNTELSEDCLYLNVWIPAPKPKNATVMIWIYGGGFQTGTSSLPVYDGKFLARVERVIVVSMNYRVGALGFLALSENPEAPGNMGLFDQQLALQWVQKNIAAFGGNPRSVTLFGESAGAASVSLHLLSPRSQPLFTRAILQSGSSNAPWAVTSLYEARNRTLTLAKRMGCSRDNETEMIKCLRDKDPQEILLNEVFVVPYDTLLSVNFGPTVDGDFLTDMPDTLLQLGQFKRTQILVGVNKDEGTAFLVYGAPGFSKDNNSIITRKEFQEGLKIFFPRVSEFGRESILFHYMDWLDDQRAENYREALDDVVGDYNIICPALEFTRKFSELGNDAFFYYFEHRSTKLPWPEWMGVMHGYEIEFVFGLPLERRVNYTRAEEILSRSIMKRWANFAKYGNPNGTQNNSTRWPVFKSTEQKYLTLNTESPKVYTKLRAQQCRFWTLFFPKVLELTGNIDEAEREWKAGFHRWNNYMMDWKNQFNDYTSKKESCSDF
The target of series [3] is Acetylcholinesterase (Electrophorus electricus) (UniProt O42275). Briefly: Inhibition of electric eel AChE using acetylthiocholine iodide as substrate preincubated with enzyme for 20 mins followed by substrate addition and measured after 20 mins by Ellman's method relative to control. Also noted: concentration or dose not given beside the values. The conditions noted are these: time 40.0 min.

The target in series [4] is Acetylcholinesterase (Homo sapiens) (UniProt P22303). Briefly: Inhibition of recombinant human AChE using acetylthiocholine iodide as substrate incubated for 5 mins relative to control.
Chain of Acetylcholinesterase (Homo sapiens) (P22303 whole entry): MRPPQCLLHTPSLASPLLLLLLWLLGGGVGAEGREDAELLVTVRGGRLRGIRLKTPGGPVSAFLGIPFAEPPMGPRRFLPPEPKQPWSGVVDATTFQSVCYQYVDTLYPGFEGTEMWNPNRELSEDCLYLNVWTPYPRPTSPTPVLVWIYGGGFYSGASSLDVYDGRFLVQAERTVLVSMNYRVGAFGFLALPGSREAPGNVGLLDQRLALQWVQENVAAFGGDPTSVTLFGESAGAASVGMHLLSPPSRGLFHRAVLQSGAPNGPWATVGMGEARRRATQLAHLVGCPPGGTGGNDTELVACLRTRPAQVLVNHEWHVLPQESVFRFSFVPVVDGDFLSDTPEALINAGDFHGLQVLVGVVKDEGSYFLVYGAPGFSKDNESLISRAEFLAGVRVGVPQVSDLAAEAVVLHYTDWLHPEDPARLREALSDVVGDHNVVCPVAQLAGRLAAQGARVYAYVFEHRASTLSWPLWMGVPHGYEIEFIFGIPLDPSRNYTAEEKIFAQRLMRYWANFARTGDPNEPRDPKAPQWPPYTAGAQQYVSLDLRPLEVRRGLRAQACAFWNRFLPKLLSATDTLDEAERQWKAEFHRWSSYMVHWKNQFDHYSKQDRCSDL
Series [5] has as its target T1, Cholinesterase (Homo sapiens, UniProt P06276). Briefly: Inhibition of human BuChE using butyrylthiocholine iodide as substrate incubated for 5 mins.
The target in series [6] is T2, Fatty-acid amide hydrolase 1 (Homo sapiens, UniProt O00519).
T2 sequence (O00519 whole entry): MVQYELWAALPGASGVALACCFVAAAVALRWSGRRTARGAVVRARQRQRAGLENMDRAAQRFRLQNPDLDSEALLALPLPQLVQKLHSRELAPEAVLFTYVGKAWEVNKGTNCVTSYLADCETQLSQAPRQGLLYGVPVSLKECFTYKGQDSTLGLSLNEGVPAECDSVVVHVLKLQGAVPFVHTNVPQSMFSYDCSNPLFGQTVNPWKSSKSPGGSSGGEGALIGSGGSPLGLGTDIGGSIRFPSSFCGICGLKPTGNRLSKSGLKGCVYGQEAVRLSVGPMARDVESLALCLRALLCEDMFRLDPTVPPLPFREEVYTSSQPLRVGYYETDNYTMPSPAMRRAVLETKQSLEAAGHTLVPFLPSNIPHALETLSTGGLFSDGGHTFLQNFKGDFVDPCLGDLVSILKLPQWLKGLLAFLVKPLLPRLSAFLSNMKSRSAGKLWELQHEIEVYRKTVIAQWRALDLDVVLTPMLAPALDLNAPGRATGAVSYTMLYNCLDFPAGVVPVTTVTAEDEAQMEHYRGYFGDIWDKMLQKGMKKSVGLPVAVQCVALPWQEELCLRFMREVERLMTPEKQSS
Briefly: Inhibition of human FAAH using arachidonoyl amide as substrate incubated for 30 mins by fluorescence-based cayman assay.

In series [7] the test system is L02. Briefly: Cytotoxicity against human L02 cells assessed as reduction in cell viability at 50 uM incubated for 24 hrs by MTT assay. The format is toxicity, cell-based. The conditions noted are these: l02, 24 h.
The test system of series [8] is PC-12. The series can be described thus: Neuroprotective activity against H2O2 induced rat PC12 cells assessed as increase in cell viability at 50 uM measured after 24 hrs by MTT assay relative to control. The format is functional. On the technique in general: Tetrazolium assays rely on reduction of a dye to a coloured formazan, in cell work by metabolically active cells.

Series [9] deals with L02. The series can be described thus: Cytotoxicity against human L02 cells assessed as reduction in cell viability at 12.5 uM incubated for 24 hrs by MTT assay. The format is toxicity, cell-based. The conditions noted are these: l02, 24 h.
In series [10] the target is T1, Cholinesterase. Briefly: Binding affinity to human BuChE (unknown origin) assessed as overall carbamolyation rate at 0.025 to 100 uM incubated for 60 mins.
Series [11] concerns PC-12. The series can be described thus: Neuroprotective activity against H2O2 induced rat PC12 cells assessed as cell viability measured after 24 hrs by MTT assay. The format is functional, cell-based. The conditions noted are these: dose 6.25-50 µM.
The target of series [12] is T1, Cholinesterase. The series can be described thus: Binding affinity to human BuChE (unknown origin) assessed as carbamolyation rate at 0.025 to 100 uM incubated for 60 mins. To be noted: dose 0.025-100 µM.
The subject of series [13] is L02. Briefly: Cytotoxicity against human L02 cells assessed as reduction in cell viability at 25 uM incubated for 24 hrs by MTT assay. The class given is toxicity, cell-based. The conditions noted are these: l02, 24 h.
For series [14], the target named is T1, Cholinesterase. Briefly: Binding affinity to human BuChE (unknown origin) assessed as equilibrium dissociation constant at 0.025 to 100 uM incubated for 60 mins.
Series [15] has as its target T1, Cholinesterase. The series can be described thus: Binding affinity to human BuChE (unknown origin) assessed as decarbamolyation rate at 0.025 to 100 uM incubated for 60 mins. To be noted: dose 0.025-100 µM.
Series [16] is described as follows: in vitro. The conditions noted are these: PAMPA, pH 7.4.
Description: Permeability of the compound in PBS at pH 7.4 incubated for 18 hrs by PAMPA-BBB assay

T1 sequence (P06276 whole entry): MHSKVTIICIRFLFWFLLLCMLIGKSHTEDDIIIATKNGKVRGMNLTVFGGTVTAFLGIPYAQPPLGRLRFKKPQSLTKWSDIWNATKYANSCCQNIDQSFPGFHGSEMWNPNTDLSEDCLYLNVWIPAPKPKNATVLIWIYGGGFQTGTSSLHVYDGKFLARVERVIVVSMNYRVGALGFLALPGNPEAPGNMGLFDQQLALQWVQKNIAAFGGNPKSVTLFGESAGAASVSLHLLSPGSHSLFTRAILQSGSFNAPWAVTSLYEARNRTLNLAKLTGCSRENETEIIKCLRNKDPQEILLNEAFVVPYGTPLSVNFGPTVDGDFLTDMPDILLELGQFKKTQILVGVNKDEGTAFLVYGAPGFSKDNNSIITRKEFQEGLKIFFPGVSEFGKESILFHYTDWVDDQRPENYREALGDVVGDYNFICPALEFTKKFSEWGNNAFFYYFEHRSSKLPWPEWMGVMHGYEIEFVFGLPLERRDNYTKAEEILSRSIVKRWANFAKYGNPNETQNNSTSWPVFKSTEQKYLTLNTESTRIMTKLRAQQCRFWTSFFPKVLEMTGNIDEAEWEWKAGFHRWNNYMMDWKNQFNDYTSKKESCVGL

`COc1ccc(C(C)=O)c(OC(=O)N(C)Cc2cccc(F)c2)c1` returned an inhibition in series [1] of 20%. Besides, the 50% inhibitory concentration (IC50) in series [2] was determined as 0.4 µM.

`COc1ccc(C(C)=O)c(OC(=O)N2CCc3cc(OC)c(OC)cc3C2)c1`: the inhibition entry in series [1] is “inactive”. For the same compound, the IC50 in series [2] amounted to 3.52 µM.

Take `C=CCc1ccc(OC(=O)N(C)CC)c(OC)c1`: the results for the inhibition in series [1] and in series [3] were 69% and 74%, respectively.

With `COc1ccc(C(C)=O)c(OC(=O)N2CCCC2)c1`, the inhibition in [1] turned out to be 21%. Moreover, in series [2], the 50% inhibitory concentration (IC50) was 1.93 µM.

Regarding `COc1ccc(C(C)=O)c(OC(=O)N(C)C)c1`, the inhibition in series [1] was found to be 8.3%. In addition, half-maximal inhibition in series [2] (IC50) required 1.64 µM.

In series [1], `COc1ccc(C(C)=O)c(OC(=O)N(C)Cc2ccc(Cl)cc2)c1` showed an inhibition of 5.8%. Moreover, the inhibition entry in [4] is “inactive”. Further, the concentration for half-maximal inhibition (IC50) stood at 0.057 µM in series [2], 0.089 µM in series [5] and 16.6 µM in series [6].

For the compound `CCN(C)C(=O)Oc1cc(C(C)C)ccc1C`, the inhibition result in [1] was “inactive”. The compound further came in with an IC50 in series [2] of 0.78 µM.

Turning to `C=CCc1ccc(OC(=O)N(C)Cc2cccc(Br)c2)c(OC)c1`, the inhibition in series [1] stood at 17%; in series [3] it was 67%.

`C=CCc1ccc(OC(=O)N2CCCCC2)c(OC)c1` showed an inhibition in [1] of 42%. Besides, the IC50 in series [2] turned out to be 0.31 µM.

Take `C=CCc1ccc(OC(=O)N2CCc3ccccc3C2)c(OC)c1`: the inhibition in [1] turned out to be 65%; in [3], 23%.

On to `CCN(C)C(=O)Oc1cccc([C@H](C)N(C)C)c1` [RIVASTIGMINE], for which the inhibition in [4] was 4.65%. In [6], this compound displayed a half-maximal inhibitory concentration (IC50) of 14 µM.

In the case of `COc1ccc(C(C)=O)c(OC(=O)N(C)Cc2ccccc2F)c1`, the inhibition entry in series [1] is “inactive”. This compound showed an IC50 in [2] of 0.94 µM.

With `COc1ccc(C(C)=O)c(OC(=O)N2CCc3ccccc3C2)c1`, in series [1], the inhibition turned out to be 27%. In series [2], this compound yielded a half-inhibitory concentration (IC50) of 11.5 µM.

In series [1], `Cc1ccc(C(C)C)cc1OC(=O)N(C)C` returned an inhibition of 62%. In [2], this compound returned an IC50 of 0.59 µM.

On to `CCN(C)C(=O)Oc1cc(OC)ccc1C(C)=O`, for which the inhibition in [1] was found to be 1.7%. The half-inhibitory concentration (IC50) in series [2] was found to be 3.68 µM.

`O=C(Oc1ccc([N+](=O)[O-])cc1)N1CCN(Cc2cccc(Oc3ccccc3)c2)CC1` had an IC50 in [6] of 0.011 µM.

In the case of `COc1cc2c(cc1OC)C(=O)C(CC1CCN(Cc3ccccc3)CC1)C2` (centres undefined) [DONEPEZIL], the Activity in series [7] was 83.4%; in series [8], 43%; in series [9], “Non-toxic”.

On to `COc1ccc(C(C)=O)c(OC(=O)N(C)Cc2ccccc2)c1`, for which the inhibition in series [1] worked out at 6.6%. The half-inhibitory concentration (IC50) in series [2] amounted to 0.19 µM.

As to `COc1ccc(C(C)=O)c(OC(=O)N(C)Cc2ccc(Br)cc2)c1`, in [1], the inhibition turned out to be 34%. This compound also showed a half-maximal inhibitory concentration (IC50) in [2] of 2.81 µM.

`C=CCc1ccc(OC(=O)N(C)Cc2ccccc2)c(OC)c1`: the inhibition in [1] was 25%. Besides, the inhibition result in [3] is “inactive”.

Consider `C=CCc1ccc(OC(=O)N(C)C)c(OC)c1`, for which the inhibition result in series [1] is “inactive”. Moreover, the inhibition in series [3] came out at 69%.

On to `COc1ccc(C(C)=O)c(OC(=O)N2CCC(C)CC2)c1`, for which the inhibition was determined as 33% in series [1] and 23% in series [4]. Moreover, the half-inhibitory concentration (IC50) amounted to 0.08 µM in [2], 1.93 µM in series [5] and 28.4 µM in series [6].

For the compound `COc1ccc(C(C)=O)c(OC(=O)N(C)Cc2cccc(Br)c2)c1`, the inhibition result in series [1] is “inactive”. In [2], this compound returned a concentration for half-maximal inhibition (IC50) of 3.41 µM.

Take `COc1ccc(C(C)=O)c(OC(=O)N2CCC(Cc3ccccc3)CC2)c1`: in series [1], the inhibition turned out to be 43%. Further, the 50% inhibitory concentration (IC50) in [2] is 0.31 µM.

`Cc1ccc(C(C)C)cc1OC(=O)N(C)Cc1cccc(Br)c1` yielded an inhibition in series [1] of 37%. This compound registered an IC50 in series [2] of 3.81 µM.

Turning to `C=CCc1ccc(OC(=O)N2CCCC2)c(OC)c1`, the inhibition result in [1] was “inactive”. The compound also displayed an IC50 in series [2] of 2 µM.

The compound `CNC(=O)Oc1cc(OC)ccc1C(C)=O` showed an inhibition in series [1] of 23%. The compound further registered an IC50 in series [2] of 2.54 µM.

For the compound `Cc1ccc(C(C)C)cc1OC(=O)N1CCCCC1`, the IC50 in [2] turned out to be 0.03 µM.

On to `COc1ccc(C(C)=O)c(OC(=O)N2CCCCC2)c1`, for which the Ki in [10] is recorded as 0.31 10^-3/uM/min. The Activity in [7] was 81.4%; in series [8], 42%; in series [11], “Dose-dependent-effect”; in [9], “Non-toxic”; in series [13], 81.6%. For the same compound, the inhibition in series [1] was determined as 6.9%. Moreover, in series [4], the inhibition result is “inactive”. The IC50 in series [2] is 0.006 µM; in [5], 0.113 µM; in series [6], 8.02 µM. In addition, the figures for the K in series [12] and in [15] were 0.41 min⁻¹ and 0.024 min⁻¹, respectively. The Kd in [14] amounted to 0.3 µM. The compound also gave an apparent permeability (Papp) at 18 h in [16] of 17.5 ×10⁻⁶ cm/s.

Turning to `C=CCc1ccc(OC(=O)N(C)Cc2ccc(Br)cc2)c(OC)c1`, in [1], the inhibition result was “inactive”. Moreover, the inhibition in series [3] amounted to 57%.

Take `Cc1ccc(C(C)C)cc1OC(=O)N(C)Cc1ccc(Br)cc1`: the inhibition in series [1] was found to be 32%. For the same compound, the midpoint of inhibition in series [2], the IC50, lay at 1.96 µM.

Compound `CNC(=O)Oc1cc(C(C)C)ccc1C` had an inhibition in series [1] of 56%. The compound further returned a concentration for half-maximal inhibition (IC50) in [2] of 2.96 µM.

For `COc1ccc(C(C)=O)c(OC(=O)N2CCSC2)c1`, the inhibition in [1] turned out to be 44%. In series [2], this compound displayed an IC50 of 0.64 µM.

The compound `COc1ccc(C(C)=O)c(OC(=O)Nc2ccc(Cl)cc2)c1` showed an inhibition in series [1] of 4.6%. The IC50 in series [2] came to 1.27 µM.

For the compound `Cc1ccc(C(C)C)cc1OC(=O)N1CCCC1`, in series [1], the inhibition result was “inactive”. In series [2], the IC50 was 0.68 µM.

Regarding `CCN(Cc1ccc(Cl)cc1)C(=O)Oc1cc(OC)ccc1C(C)=O`, in [1], the inhibition result is “inactive”. Moreover, in series [2], the half-maximal inhibitory concentration (IC50) came out at 0.42 µM.

As to `C=CCc1ccc(OC(=O)NC)c(OC)c1`, the inhibition was determined as 42% in series [1] and 53% in series [3].

Turning to `Cc1ccc(C(C)C)cc1OC(=O)N(C)Cc1cccc(Cl)c1`, the inhibition in [1] amounted to 36%. The compound also came in with an IC50 in [2] of 1.13 µM.
